Experimental data as given in PubChem BioAssay AID1259411 (Chemical Carcinogenesis Research Information System (CCRIS), 2018).
The source made the active and inactive calls. The rule behind the calls is not given here.

Test system: rodent carcinogenicity bioassays, tumor incidence
Assay: CCRIS carcinogenicity studies
Details: Dose: 0
Summary of the method: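 Archive of carcinogenicity, mutagenicity, tumor promotion and tumor inhibition results drawn from journals, NCI reports and other sources, expert-reviewed; covers 1985-2011 and is no longer updated.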

**Q.** Which carcinogen call (Species: MONKEY, Strain/Sex: CYNOMOLGUS/FEMALE, Route: ORAL, 20 MG/WOMAN/D HUMAN DOSE EQUIVALENT IN DIET FOR 36 MONTHS BEGINNING 3 MONTHS POST BILATERAL OVARIECTOMY (STUDY DURATI) does the source give for `CC/C(=C(\c1ccccc1)c1ccc(OCCN(C)C)cc1)c1ccccc1` here?
**A.** inactive; negative

**Q.** What about the carcinogen call (Species: MOUSE, Strain/Sex: CD-1/FEMALE, Route: SUBCUTANEOUS, 1, 2, 5, 10, 25, 50 UG/D ON DAYS 1-5 OF LIFE (STUDY DURATION: 17 MO), 1, 2, 5, 10, 25, 50 UG/D ON DAYS 1-5 OF LIFE (STUDY DURATION: 17 MO), Tumor Site: Type of Lesion: UTERUS: ADENOCARCINOMA) of the same compound?
**A.** active; positive

**Q.** What about the carcinogen call (Species: Mouse, Strain/Sex: CD-1/Female (30/group), Route: Subcutaneous, 10 ug as tamoxifen in peanut oil, dosed on days 1-5 of life and retained for 1.5 (4 animals), 3 (4 animals), 6 (4 ani, 10 ug as tamoxifen in peanut oil, dosed on days 1-5 of life and retained for 1.5 (4 animals), 3 (4 animals), 6 (4 ani, Tumor Site: Type of Lesion: Uterus and ovaries examined) of the same compound?
**A.** inactive; negative

**Q.** What about the carcinogen call (Species: Mouse, Strain/Sex: CD-1/Female (35/group), Route: Subcutaneous, 5, 10, 25, 50 ug as tamoxifen in peanut oil, dosed on days 1-5 of life and retained for 3 (4 animals), 6 (4 animals),, 5, 10, 25, 50 ug as tamoxifen in peanut oil, dosed on days 1-5 of life and retained for 3 (4 animals), 6 (4 animals),, Tumor Site: Type of Lesion: Uterus and ovaries examined) of the same compound?
**A.** inactive; negative (nonneoplastic changes were observed)

**Q.** And the carcinogen call (Species: RAT, Strain/Sex: ALDERLEY PARK/FEMALE, Route: GAVAGE, 5, 20, 35 MG/KG/D IN 0.5% HYDROXYPROPYL METHYLCELLULOSE FOR 2 YR (STUDY DURATION: 2 YR), 5, 20, 35 MG/KG/D IN 0.5% HYDROXYPROPYL METHYLCELLULOSE FOR 2 YR (STUDY DURATION: 2 YR), Tumor Site: Type of Lesion: LIVER: HEPATOCELLULAR ADENOMA, HEPATOCELLULAR CARCINOMA, HEPATO/CHOLANGIOCELLULAR CARCINOMA)?
**A.** active; positive

**Q.** What about the carcinogen call (Species: RAT, Strain/Sex: ALDERLEY PARK/MALE, Route: GAVAGE, 5, 20, 35 MG/KG/D IN 0.5% HYDROXYPROPYL METHYLCELLULOSE FOR 2 YR (STUDY DURATION: 2 YR), 5, 20, 35 MG/KG/D IN 0.5% HYDROXYPROPYL METHYLCELLULOSE FOR 2 YR (STUDY DURATION: 2 YR), Tumor Site: Type of Lesion: LIVER: HEPATOCELLULAR ADENOMA, HEPATOCELLULAR CARCINOMA, HEPATO/CHOLANGIOCELLULAR CARCINOMA) of the same compound?
**A.** active; positive

**Q.** What about the carcinogen call (Species: RAT, Strain/Sex: SPRAGUE-DAWLEY/FEMALE, Route: GAVAGE, 2.8, 11.3, 45.2 MG/KG/D IN CARBOXYMETHYL-CELLULOSE FOR UP TO 1 YR WITH 2 RECOVERY PERIODS, 4 WK OF RECOVERY AFTER 6 M, 2.8, 11.3, 45.2 MG/KG/D IN CARBOXYMETHYL-CELLULOSE FOR UP TO 1 YR WITH 2 RECOVERY PERIODS, 4 WK OF RECOVERY AFTER 6 M, Tumor Site: Type of Lesion: LIVER: ADENOMA, CARCINOMA) of the same compound?
**A.** active; positive

**Q.** And the carcinogen call (Species: RAT, Strain/Sex: SPRAGUE-DAWLEY/FEMALE, Route: GAVAGE, 11.3, 22.6 MG/KG IN 0.5% CARBOXYMETHYLCELLULOSE 1/D 7 D/WK FOR UP TO 12 MO (STUDY DURATION: 15 MO), 11.3, 22.6 MG/KG IN 0.5% CARBOXYMETHYLCELLULOSE 1/D 7 D/WK FOR UP TO 12 MO (STUDY DURATION: 15 MO), Tumor Site: Type of Lesion: LIVER: HEPATOCELLULAR ADENOMA, HEPATOCELLULAR CARCINOMA)?
**A.** active; positive

**Q.** And the carcinogen call (Species: RAT, Strain/Sex: WISTAR/FEMALE, Route: ORAL, 1 MG/KG BW/D IN PEANUT OIL/LECITHIN/CONDENSED MILK MIXTURE ON DAYS 2-5 OF AGE (STUDY DURATION: 35 MONTHS), Tumor Site: Type of Lesion: UTERUS: ADENOCARCINOMA, VAGINA/CERVIX: SQUAMOUS CELL CARCINOMA)?
**A.** active; positive

**Q.** And the carcinogen call (Species: RAT, Strain/Sex: WISTAR/FEMALE, Route: ORAL, 420 PPM IN DIET FOR 3 MO (STUDY DURATION: LIFETIME), Tumor Site: Type of Lesion: LIVER: TUMOR)?
**A.** active; positive

**Q.** Which results are given for `Cc1c(N)nc(C(CC(N)=O)NCC(N)C(N)=O)nc1C(=O)NC(C(=O)NC(C)C(O)C(C)C(=O)NC(C(=O)NCCc1nc(-c2nc(C(=O)NCCC[S+](C)C)cs2)cs1)C(C)O)C(O[C@@H]1O[C@@H](CO)[C@@H](O)[C@H](O)[C@@H]1O[C@H]1O[C@H](CO)[C@@H](O)[C@H](OC(N)=O)[C@@H]1O)c1cnc[nH]1` (stereo partly drawn)?
**A.** carcinogen call (Species: RAT, Strain/Sex: SPRAGUE-DAWLEY/FEMALE, Route: SUBCUTANEOUS, 0.35, 0.7, 1.40, 2.8 MG/KG IN SALINE 1/WK FOR 10 WK THEN 1/2 WK FOR 52 WK OR FOR LIFETIME (STUDY DURATION: 650 D), 0.35, 0.7, 1.40, 2.8 MG/KG IN SALINE 1/WK FOR 10 WK THEN 1/2 WK FOR 52 WK OR FOR LIFETIME (STUDY DURATION: 650 D), Tumor Site: Type of Lesion: KIDNEY: MALIGNANT OR BENIGN TUMOR, INJECTION SITE: MALIGNANT TUMOR): active; positive; carcinogen call (Species: RAT, Strain/Sex: SPRAGUE-DAWLEY/MALE, Route: SUBCUTANEOUS, 0.35, 0.70, 1.40, 2.8 MG/KG IN SALINE 1/WK FOR 10 WK THEN 1/2 WK FOR 52 WK OR FOR LIFETIME (STUDY DURATION: 650 D), 0.35, 0.70, 1.40, 2.8 MG/KG IN SALINE 1/WK FOR 10 WK THEN 1/2 WK FOR 52 WK OR FOR LIFETIME (STUDY DURATION: 650 D), Tumor Site: Type of Lesion: KIDNEY: MALIGNANT OR BENIGN TUMOR, INJECTION SITE: MALIGNANT TUMOR): active; positive

**Q.** For `c1ccoc1`, which carcinogen call (Species: MOUSE, Strain/Sex: B6C3F1/FEMALE, Route: GAVAGE, 8, 15 MG/KG IN CORN OIL 5 D/WK FOR 104 WK (STUDY DURATION: 105 WK), 8, 15 MG/KG IN CORN OIL 5 D/WK FOR 104 WK (STUDY DURATION: 105 WK), Tumor Site: Type of Lesion: ADRENAL MEDULLA: BENIGN PHEOCHROMOCYTOMA, LIVER: HEPATOCELLULAR ADENOMA, HEPATOCELLULAR CARCINOMA) is on record?
**A.** active; positive

**Q.** What about the carcinogen call (Species: MOUSE, Strain/Sex: B6C3F1/MALE, Route: GAVAGE, 8, 15 MG/KG IN CORN OIL 5 D/WK FOR 104 WK (STUDY DURATION: 105 WK), 8, 15 MG/KG IN CORN OIL 5 D/WK FOR 104 WK (STUDY DURATION: 105 WK), Tumor Site: Type of Lesion: ADRENAL MEDULLA: BENIGN PHEOCHROMOCYTOMA, LIVER: HEPATOCELLULAR ADENOMA, HEPATOCELLULAR CARCINOMA) of the same compound?
**A.** active; positive

**Q.** And the carcinogen call (Species: MOUSE, Strain/Sex: B6C3F1/MALE, Route: INTRAPERITONEAL, 200 MG/KG BW ONCE EACH ON POSTNATAL DAYS 3, 6, 9, 12, 15 AND 18 (STUDY DURATION: 95 WK), Tumor Site: Type of Lesion: LIVER: ADENOMA OR CARCINOMA)?
**A.** active; positive

**Q.** What about the carcinogen call (Species: MOUSE, Strain/Sex: B6C3F1/MALE, Route: INTRAPERITONEAL, 400 MG/KG BW ONCE ON POSTNATAL DAY 15 (STUDY DURATION: 95 WK)) of the same compound?
**A.** inactive; negative

**Q.** What about the carcinogen call (Species: RAT, Strain/Sex: B6C3F1/FEMALE, Route: GAVAGE, 2, 4, 8 MG/KG IN CORN OIL 5 D/WK FOR 103 WK (STUDY DURATION: 104 WK), 2, 4, 8 MG/KG IN CORN OIL 5 D/WK FOR 103 WK (STUDY DURATION: 104 WK), Tumor Site: Type of Lesion: LIVER: CHOLANGIOCARCINOMA, HEPATOCELLULAR ADENOMA OR CARCINOMA, HEMATOPOIETIC SYSTEM: MONONUCLEAR CELL LEUKEMIA) of the same compound?
**A.** active; positive

**Q.** And the carcinogen call (Species: RAT, Strain/Sex: F344/MALE, Route: GAVAGE, 2, 4, 8 MG/KG IN CORN OIL 5 D/WK FOR 103 WK (STUDY DURATION: 104 WK), 2, 4, 8 MG/KG IN CORN OIL 5 D/WK FOR 103 WK (STUDY DURATION: 104 WK), Tumor Site: Type of Lesion: LIVER:CHOLANGIOCARCINOMA, HEPATOCELLULAR ADENOMA, HEPATOCELLULAR CARCINOMA, HEMATOPOIETIC SYSTEM: MONONUCLEAR CELL LEUKE)?
**A.** active; positive
